Laboratory results: publication PMC7413254 (Nature Communications, 2020)
Read-outs that look alike come from different tables or passages of the source.

Legend:
PfCRT^Ecu1110 [1] = target: T1, PfCRT^Ecu1110 (Plasmodium falciparum, UniProt Q9N623, A220S/I356L/K76T/N326D); experiment: [3H]CQ uptake into Xenopus oocytes, cis-inhibition by unlabelled solute; assay type: cell-based
In short: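 Inward transport into oocyte cytosol from pH 5.5 medium models PfCRT efflux from the acidic digestive vacuole. Incubation 1.5 h, 27.5 °C; termination by ice-cold washes; lysate radioactivity counted.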

non-expressing oocytes = assay type: cell-based, Xenopus laevis; settings: total [3H]CQ transport; for Uptake of [3H]CQ (% non-expressing oocyte control), trans-stimulation: non-expressing oocytes, normalised to the oocyte type control; for Uptake of [3H]CQ (% PfCRTDd2 control), trans-stimulation, non-expressing oocytes: mean ± SEM, SEM
In short: (§1)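 Oocytes (ten per treatment, ≥4 independent frogs/days) were preloaded by injecting VF-6 in 25 nL ND96 at pH 5.0, 5.5, 6.0 or 7.0, or Na^+-free choline buffer, then uptake run 1.5 h, 27.5 °C, ND96 pH 5.5 by default. Internal concentrations assumed ~400 nL oocyte volume.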

PfCRT^3D7 = PfCRT^3D7 (Plasmodium falciparum, UniProt Q8IBZ9); experiment: cell-based; assay type: cell-based
In short: as §1

PfCRT^Dd2 = PfCRT^Dd2 (Plasmodium falciparum, UniProt Q9N623, A220S/I356T/K76T/M74I/N326S/N75E/Q271E/R371I); experiment: cell-based; assay type: cell-based; settings: […]; for activity at 45000 µM: [test solute]i = 45 mM (30 mM for some solutes due to solubility)
In short: as §1

PfCRT^Ecu1110 [2] = target: T1, PfCRT^Ecu1110; experiment: cell-based; assay type: cell-based; settings: […]
In short: as §1

PfNT1 = target: T2, PfNT1 (Plasmodium falciparum, UniProt Q8IDM6); experiment: cell-based; assay type: cell-based; settings: for activity at 5000 µM: total [3H]CQ transport
T2 construct: expressed in transfected cells; host or cells: Xenopus laevis oocytes (stage V-VI), cRNA-injected
In short: as §1

PfCRT [3] = experiment: Influx of VF-6 via PfCRT into the oocyte, solutes tested as potential co-substrates; assay type: cell-based, Plasmodium falciparum; parameters: key: X: Compounds that have been tested as potential co-substrates but are not required for influx of VF-6 via PfCRT into the oocyte; settings: X marks the solute
PfCRT [4] = experiment: Potential co-substrates tested for influx of VF-6 via PfCRT into the oocyte; assay type: cell-based, Plasmodium falciparum; parameters: key: X: Compounds that have been tested as potential co-substrates but are not required for influx of VF-6 via PfCRT into the oocyte
[5] = read-out: [3H]CQ transport (% PfCRTEcu1110 control), cis-inhibition, PfCRTEcu1110, SEM

T2 sequence (Q8IDM6 whole entry): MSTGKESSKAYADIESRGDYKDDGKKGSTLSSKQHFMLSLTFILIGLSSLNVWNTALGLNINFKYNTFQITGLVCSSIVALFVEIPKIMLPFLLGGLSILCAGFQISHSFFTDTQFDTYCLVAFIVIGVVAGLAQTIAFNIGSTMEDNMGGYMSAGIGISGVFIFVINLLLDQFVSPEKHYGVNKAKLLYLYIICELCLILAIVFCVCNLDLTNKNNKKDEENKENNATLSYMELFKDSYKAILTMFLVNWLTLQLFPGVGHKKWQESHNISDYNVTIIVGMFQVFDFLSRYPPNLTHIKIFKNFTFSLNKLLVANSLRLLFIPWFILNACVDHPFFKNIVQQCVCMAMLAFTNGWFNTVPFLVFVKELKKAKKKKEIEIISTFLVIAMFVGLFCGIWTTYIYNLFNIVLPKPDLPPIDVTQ
T1 sequence (Q9N623 whole entry A220S/I356L/K76T/N326D): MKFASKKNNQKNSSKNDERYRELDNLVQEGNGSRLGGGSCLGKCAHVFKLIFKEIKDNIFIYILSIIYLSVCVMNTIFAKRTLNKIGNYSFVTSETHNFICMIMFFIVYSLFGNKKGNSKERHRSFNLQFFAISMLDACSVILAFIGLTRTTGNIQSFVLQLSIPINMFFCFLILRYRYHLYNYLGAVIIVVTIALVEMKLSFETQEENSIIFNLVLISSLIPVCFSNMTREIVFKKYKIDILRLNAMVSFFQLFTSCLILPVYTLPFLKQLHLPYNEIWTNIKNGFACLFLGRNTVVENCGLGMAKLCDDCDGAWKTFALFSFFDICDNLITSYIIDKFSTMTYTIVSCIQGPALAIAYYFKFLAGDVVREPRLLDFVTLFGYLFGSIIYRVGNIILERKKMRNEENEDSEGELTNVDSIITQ
PfCRT^Dd2, sequence (Q9N623 whole entry A220S/I356T/K76T/M74I/N326S/N75E/Q271E/R371I): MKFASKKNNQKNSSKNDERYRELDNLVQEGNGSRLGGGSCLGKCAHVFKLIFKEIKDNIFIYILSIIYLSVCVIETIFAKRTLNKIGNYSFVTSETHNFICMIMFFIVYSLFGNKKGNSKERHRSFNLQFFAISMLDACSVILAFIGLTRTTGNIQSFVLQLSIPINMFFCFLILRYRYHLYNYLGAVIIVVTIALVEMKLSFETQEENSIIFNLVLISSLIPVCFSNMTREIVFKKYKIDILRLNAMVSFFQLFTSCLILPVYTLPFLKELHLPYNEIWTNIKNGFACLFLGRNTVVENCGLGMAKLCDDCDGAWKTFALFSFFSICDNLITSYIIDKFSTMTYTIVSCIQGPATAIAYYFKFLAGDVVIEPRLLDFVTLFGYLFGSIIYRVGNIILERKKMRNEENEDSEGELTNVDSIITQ
PfCRT^3D7, sequence (Q8IBZ9 59-398): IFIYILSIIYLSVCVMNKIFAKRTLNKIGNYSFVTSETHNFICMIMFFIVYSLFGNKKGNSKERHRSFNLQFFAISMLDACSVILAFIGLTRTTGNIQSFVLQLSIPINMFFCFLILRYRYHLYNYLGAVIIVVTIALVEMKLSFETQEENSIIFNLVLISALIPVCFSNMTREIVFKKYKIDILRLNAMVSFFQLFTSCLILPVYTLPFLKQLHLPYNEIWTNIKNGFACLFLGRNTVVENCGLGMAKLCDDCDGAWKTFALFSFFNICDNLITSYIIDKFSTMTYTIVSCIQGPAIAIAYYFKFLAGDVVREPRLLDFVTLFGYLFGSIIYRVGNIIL

## CC(C)C[C@H](N)C(=O)O [L-leucine]
PfCRT^Ecu1110 [1]; read-out: Uptake of [3H]CQ (% PfCRTEcu1110 control), cis-inhibition
  inhibition at 2000 µM: 100 ± 3.2%
PfCRT^Ecu1110 [1]; [5]
  inhibition at 500 µM: 30 ± 1.5%
  inhibition at 1000 µM: 29 ± 0.6%
  inhibition at 2000 µM: 30 ± 0.7%
non-expressing oocytes; [test solute]i = 5 mM
  Uptake of [3H]CQ (% non-expressing oocyte control), trans-stimulation: 100 ± 3.2 % non-expressing oocyte control
non-expressing oocytes; [test solute]i = 45 mM (30 mM for some solutes due to solubility)
  Uptake of [3H]CQ (% non-expressing oocyte control), trans-stimulation: 100 ± 3.3 % non-expressing oocyte control
non-expressing oocytes; [test solute]i = 5 mM (intracellular)
  Uptake of [3H]CQ (% PfCRTDd2 control), trans-stimulation, non-expressing oocytes: 3.2 ± 0.08 % PfCRTDd2 control
non-expressing oocytes; [test solute]i = 45 mM (intracellular; 30 mM for some solutes due to solubility)
  Uptake of [3H]CQ (% PfCRTDd2 control), trans-stimulation, non-expressing oocytes: 3.2 ± 0.05 % PfCRTDd2 control
PfCRT^3D7; PfCRT3D7 oocytes, [test solute]i = 5 mM, total [3H]CQ transport, normalised to the oocyte type control, read-out: Uptake of [3H]CQ (% PfCRT3D7 control), trans-stimulation
  activity at 5000 µM: 100 ± 2.4%
PfCRT^3D7; SEM
  [3H]CQ transport (% PfCRT3D7 control), trans-stimulation, PfCRT3D7: 0.3 ± 0.02 % PfCRT3D7 control
PfCRT^3D7; [test solute]i = 5 mM (intracellular), PfCRT3D7 oocytes, normalised to oocyte type control, read-out: PfCRT-mediated [3H]CQ transport, trans-stimulation (% PfCRT3D7 control)
  activity at 5000 µM: 98 ± 3.4%
PfCRT^3D7; SEM, read-out: Uptake of [3H]CQ (% PfCRTDd2 control), trans-stimulation, PfCRT3D7
  activity at 45000 µM: 3.2 ± 0.04%
PfCRT^3D7; read-out: PfCRT-mediated [3H]CQ transport, trans-stimulation (% PfCRT3D7 control)
  activity at 45000 µM: 95 ± 4.1%
PfCRT^3D7; read-out: Uptake of [3H]CQ (% PfCRT3D7 control), trans-stimulation
  activity at 45000 µM: 97 ± 2.8%
PfCRT^3D7; total [3H]CQ transport, [test solute]i = 5 mM (intracellular), mean ± SEM, SEM, read-out: Uptake of [3H]CQ (% PfCRTDd2 control), trans-stimulation, PfCRT3D7
  activity at 5000 µM: 3.3 ± 0.03%
PfCRT^Dd2; pH 5.5, read-out: PfCRT-mediated [3H]CQ transport, trans-stimulation (% PfCRTDd2 control), [test solute]i = 5 mM (intracellular), PfCRTDd2 oocytes, normalised to oocyte type control
  activity at 5000 µM: 95 ± 3.4%
PfCRT^Dd2; pH 5.5, read-out: Uptake of [3H]CQ (% PfCRTDd2 control), trans-stimulation, PfCRTDd2, total [3H]CQ transport, [test solute]i = 5 mM (intracellular), mean ± SEM, SEM
  activity at 5000 µM: 97 ± 0.7%
PfCRT^Dd2; pH 5.5, read-out: Uptake of [3H]CQ (% PfCRTDd2 control), trans-stimulation, PfCRTDd2 oocytes, [test solute]i = 5 mM, total [3H]CQ transport, normalised to the oocyte type control
  activity at 5000 µM: 97 ± 0.7%
PfCRT^Dd2; pH 5.5, read-out: Uptake of [3H]CQ (% PfCRTDd2 control), trans-stimulation, PfCRTDd2 oocytes, total [3H]CQ transport, normalised to the oocyte type control
  activity at 45000 µM: 98 ± 2.2%
PfCRT^Dd2; pH 5.5, read-out: [3H]CQ transport (% PfCRTDd2 control), trans-stimulation, PfCRTDd2, trans-stimulation, [test solute]i = 5 mM (injected), PfCRT-mediated component (background subtracted), mean ± SEM, SEM
  activity at 5000 µM: 95 ± 3.4%
PfCRT^Dd2; pH 5.5, read-out: [3H]CQ transport (% PfCRTDd2 control), trans-stimulation, PfCRTDd2, trans-stimulation, PfCRT-mediated component (background subtracted), mean ± SEM, SEM
  activity at 45000 µM: 96 ± 2.9%
PfCRT^Ecu1110 [2]; pH 5.5, read-out: PfCRT-mediated [3H]CQ transport, trans-stimulation (% PfCRTEcu1110 control), [test solute]i = 5 mM (intracellular), PfCRTEcu1110 oocytes, normalised to oocyte type control
  activity at 5000 µM: 96 ± 2.6%
PfCRT^Ecu1110 [2]; pH 5.5, read-out: Uptake of [3H]CQ (% PfCRTEcu1110 control), trans-stimulation, PfCRTEcu1110 oocytes, [test solute]i = 5 mM, total [3H]CQ transport, normalised to the oocyte type control
  activity at 5000 µM: 98 ± 3.2%
PfCRT^Ecu1110 [2]; pH 5.5, read-out: Uptake of [3H]CQ (% PfCRTEcu1110 control), trans-stimulation, PfCRTEcu1110 oocytes, [test solute]i = 45 mM (30 mM for some solutes due to solubility), total [3H]CQ transport, normalised to the oocyte type control
  activity at 45000 µM: 100 ± 3.5%
PfCRT^Ecu1110 [2]; read-out: Uptake of [3H]CQ (% PfCRTDd2 control), trans-stimulation, PfCRTEcu1110, total [3H]CQ transport, [test solute]i = 5 mM (intracellular), mean ± SEM, SEM
  activity at 5000 µM: 35 ± 1.3%
PfCRT^Ecu1110 [2]; read-out: Uptake of [3H]CQ (% PfCRTDd2 control), trans-stimulation, PfCRTEcu1110, total [3H]CQ transport, [test solute]i = 45 mM (intracellular; 30 mM for some solutes due to solubility), mean ± SEM, SEM
  activity at 45000 µM: 36 ± 1.7%
PfNT1; PfNT1 oocytes, [test solute]i = 5 mM, normalised to the oocyte type control, read-out: Uptake of [3H]CQ (% PfNT1 control), trans-stimulation
  activity at 5000 µM: 100 ± 3.8%
PfNT1; SEM, read-out: Uptake of [3H]CQ (% PfCRTDd2 control), trans-stimulation, PfNT1
  activity at 45000 µM: 2.3 ± 0.09%
PfNT1; read-out: Uptake of [3H]CQ (% PfNT1 control), trans-stimulation
  activity at 45000 µM: 98 ± 3.3%
PfNT1; [test solute]i = 5 mM (intracellular), mean ± SEM, SEM, read-out: Uptake of [3H]CQ (% PfCRTDd2 control), trans-stimulation, PfNT1
  activity at 5000 µM: 3%
PfCRT [3]
  Compounds that have been tested as potential co-substrates but are not required for influx of VF-6 via PfCRT into the oocyte: X
PfCRT [4]
  Tested as potential co-substrate but not required for influx of VF-6 via PfCRT into the oocyte: X
